Key:
RORγ-LBD = molecular target: T1, RORγ-LBD (Homo sapiens, UniProt P51449); assay: RORγ-Ligand Binding Domain (LBD) TR-FRET Assay; type: biochemical; conditions: for TR-FRET Assay Max Response: maximum response;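 for TR-FRET Assay Max Response: 665/615 nm signal ratio set to 100 without ursolic acid or test compound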
T1 construct: made in house; host or cells: SF9 cells (baculovirus); used as diluted lysate
T1 sequence (P51449 269-508 limits assumed): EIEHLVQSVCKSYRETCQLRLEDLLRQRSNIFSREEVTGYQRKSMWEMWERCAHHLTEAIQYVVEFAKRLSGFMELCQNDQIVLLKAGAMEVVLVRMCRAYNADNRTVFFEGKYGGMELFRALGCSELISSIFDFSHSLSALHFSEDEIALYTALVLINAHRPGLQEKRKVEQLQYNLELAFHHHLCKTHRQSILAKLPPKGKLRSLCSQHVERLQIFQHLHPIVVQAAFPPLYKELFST
Procedure, shortened: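 This TR-FRET coactivator assay pairs baculovirus-expressed His-RORγ-LBD (~3 nM final) with biotin-SRC1 LXXLL peptide at 200 nM final in pH 7.0 Tris/KCl/EDTA/DTT/BSA buffer.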

Gal4-RORγ-LBD = molecular target: T2, Gal4-RORγ-LBD (Homo sapiens, UniProt P51449); assay: Gal4-RORγ Luciferase Reporter Assay in HEK-293T Cells; type: cell-based; conditions: HEK-293 cells; for Gal4-RORγ Assay Max Response: maximum response
T2 construct: expressed in transfected cells
T2 sequence (P51449 269-508 limits assumed): T1 sequence (P51449 269-508 limits assumed)
Procedure, shortened: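 HEK-293 cells were co-transfected with Gal4-RORγ-LBD and a Gal4-luciferase reporter, then exposed overnight at 37 °C to compounds with […] ursolic acid present (0.2% DMSO). Luminescence was read with One-Glo after 10 min at RT, untreated signal was set as 100, and Max Response was taken as the upper plateau of a 4-parameter logistic fit.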

[1] = luciferase reporter, with ursolic acid
[2] = luciferase reporter, in presence of ursolic acid
[3] = with 2 μM ursolic acid (RORγ antagonist), highest test concentration 10 μM
[4] = ursolic acid present, luciferase readout

Row | EC50 (RORγ-LBD; RORγ-LBD TR-FRET) | EC50 (Gal4-RORγ-LBD; [1]) | Structure (SMILES) | further results
1 | 0.5 to 5 µM | < 0.5 µM | C/C(=C\c1cc2c(cc1Cl)O[C@@H](CCC(=O)O)CN2S(=O)(=O)c1cccc(OC(F)F)c1)c1c(F)cccc1Cl [Example 48, (S,E)-3-(6-(2-(2-Chloro-6-fluorophenyl)prop-1-en-1-yl)-4-((3-(difluoromethoxy)phenyl)sulfonyl)-7-chloro-3,4-dihydro-2H-benzo[b][1,4]oxazin-2-yl)propanoate] | 
2 | < 0.5 µM | 0.5 to 5 µM | O=C(O)CC[C@H]1CN(S(=O)(=O)c2cccc(OC(F)F)c2)c2cc(/C=C/c3c(F)cccc3C(F)(F)F)ccc2O1 [Example 89AI, (S,E)-3-(4-((3-(difluoromethoxy)phenyl)sulfonyl)-6-(2-fluoro-6-(trifluoromethyl)-styryl)-3,4-dihydro-2H-benzo[b][1,4]oxazin-2-yl)propanoic acid] | 
3 | < 0.5 µM | < 0.5 µM | COC(=O)CC[C@H]1CN(S(=O)(=O)c2cccc(C(C)C)c2)c2cc(/C=C(\C)c3c(F)cccc3Cl)ccc2O1 [Example 86R, (S,E)-methyl 3-(6-(2-(2-chloro-6-fluorophenyl)prop-1-en-1-yl)-4-((3-isopropylphenyl)sulfonyl)-3,4-dihydro-2H-benzo[b][1,4]oxazin-2-yl)propanoate] | 
4 |  |  | COc1cc(S(=O)(=O)N2C[C@H](CNC(=O)CCC(=O)O)Oc3ccc(/C=C(\C)c4c(F)cccc4Cl)cc32)ccc1F [Example 132, (S,E)-4-(((6-(2-(2-Chloro-6-fluorophenyl)prop-1-en-1-yl)-4-((4-fluoro-3-methoxyphenyl)sulfonyl)-3,4-dihydro-2H-benzo[b][1,4]oxazin-2-yl)methyl)amino)-4-oxobutanoic acid] | EC50 (RORγ-LBD; RORγ-LBD TR-FRET assay): < 0.5 µM; TR-FRET Assay Max Response (RORγ-LBD; RORγ-LBD TR-FRET assay): **** (a value greater than 200); EC50 (Gal4-RORγ-LBD; [2]): 0.5 to 5 µM; Gal4-RORγ Assay Max Response (Gal4-RORγ-LBD; [2]): *** (a value in the range of greater than 150 to 200)
5 | < 0.5 µM | > 10 µM | C/C(=C\c1cc2c(cc1C)O[C@@H](CCC(=O)O)CN2S(=O)(=O)c1cccc(C(F)(F)F)c1)c1c(F)cccc1Cl [Example 56, (S,E)-3-(6-(2-(2-Chloro-6-fluorophenyl)prop-1-en-1-yl)-7-methyl-4-((3-(trifluoromethyl)phenyl)sulfonyl)-3,4-dihydro-2H-benzo[b][1,4]oxazin-2-yl)propanoic acid] | 
6 |  |  | CCOC(=O)[C@@H]1Cc2ccc(OCc3c(F)cccc3Cl)cc2N(S(=O)(=O)c2ccc(F)c(OC)c2)[C@@H]1C | EC50 (RORγ-LBD; [3]): < 0.5 µM; EC50 (Gal4-RORγ-LBD; [4]): 0.5 to 5 µM
7 | < 0.5 µM | 0.5 to 5 µM | CCOc1nn(CC)cc1S(=O)(=O)N1C[C@H](CCC(=O)OC)Oc2ccc(/C=C(\C)c3c(Cl)cccc3C(F)(F)F)cc21 [Example 86AX, methyl (S,E)-3-(6-(2-(2-chloro-6-(trifluoromethyl)phenyl)prop-1-en-1-yl)-4-((3-ethoxy-1-ethyl-1H-pyrazol-4-yl)sulfonyl)-3,4-dihydro-2H-benzo[b][1,4]oxazin-2-yl)propanoate] | 
8 | < 0.5 µM | < 0.5 µM | CCOc1ncc(C(F)(F)F)cc1S(=O)(=O)N1C[C@H](CCC(=O)O)Oc2ccc(/C=C/c3c(OC)cccc3C(F)(F)F)cc21 [Example 89ET, (S,E)-3-(4-((2-ethoxy-5-(trifluoromethyl)pyridin-3-yl)sulfonyl)-6-(2-methoxy-6-(trifluoromethyl)styryl)-3,4-dihydro-2H-benzo[b][1,4]-oxazin-2-yl)propanoic acid] | 
9 | < 0.5 µM | 0.5 to 5 µM | O=C(O)CC[C@H]1CN(S(=O)(=O)c2cccc(OC(F)F)c2)c2cc(/C=C/c3ccccc3C(F)(F)F)ccc2O1 [Example 89AO, (S,E)-3-(4-((3-(difluoromethoxy)phenyl)sulfonyl)-6-(2-(trifluoromethyl)styryl)-3,4-dihydro-2H-benzo[b][1,4]oxazin-2-yl)propanoic acid] | 
10 | < 0.5 µM | 0.5 to 5 µM | COc1cccc(Cl)c1/C=C/c1ccc2c(c1)N(S(=O)(=O)c1cccc(C(F)(F)F)c1)C[C@H](CCC(=O)O)O2 [Example 89EY, (S,E)-3-(6-(2-chloro-6-methoxystyryl)-4-((3-(trifluoromethyl)phenyl)-sulfonyl)-3,4-dihydro-2H-benzo[b][1,4]oxazin-2-yl)propanoic acid] | 
11 |  |  | C/C(=C\c1ccc2c(c1)N(S(=O)(=O)c1cccc(C(F)(F)F)c1)C[C@H](CCC(=O)N1C[C@@H](C)O[C@@H](C)C1)O2)c1c(F)cccc1Cl [Example 127E, 3-((S)-6-((E)-2-(2-chloro-6-fluorophenyl)prop-1-en-1-yl)-4-((3-(trifluoromethyl)phenyl)sulfonyl)-3,4-dihydro-2H-benzo[b][1,4]oxazin-2-yl)-1-((2S,6R)-2,6-dimethylmorpholino)propan-1-one] | EC50 (RORγ-LBD; RORγ-LBD TR-FRET assay): < 0.5 µM; TR-FRET Assay Max Response (RORγ-LBD; RORγ-LBD TR-FRET assay): *** (a value in the range of greater than 150 to 200); EC50 (Gal4-RORγ-LBD; [2]): < 0.5 µM; Gal4-RORγ Assay Max Response (Gal4-RORγ-LBD; [2]): * (a value in the range of 30 to 90)
12 | < 0.5 µM | < 0.5 µM | O=C(O)CC[C@H]1CN(S(=O)(=O)c2cccc(C(F)(F)F)c2)c2cc(/C=C3\CC4CCC3C4)ccc2O1 (stereo partly drawn) [Example 95S, 3-((2S)-6-((E)-bicyclo[2.2.1]heptan-2-ylidenemethyl)-4-((3-(trifluoromethyl)phenyl)sulfonyl)-3,4-dihydro-2H-benzo[b][1,4]oxazin-2-yl)propanoic acid] | 
13 |  |  | C[C@H]1CN(S(=O)(=O)c2cccc(C(F)(F)F)c2)c2cc(COc3c(F)cccc3Cl)ccc2O1 | EC50 (RORγ-LBD; [3]): < 0.5 µM; EC50 (Gal4-RORγ-LBD; [4]): 5 to 10 µM
14 | < 0.5 µM | < 0.5 µM | CCOc1ncc(C(F)(F)F)cc1S(=O)(=O)N1C[C@H](CCC(=O)O)Oc2ccc(/C=C/c3c(Cl)cccc3C(C)(F)F)cc21 [Example 89FG, (S,E)-3-(6-(2-chloro-6-(1,1-difluoroethyl)styryl)-4-((2-ethoxy-5-(trifluoromethyl)-pyridin-3-yl)sulfonyl)-3,4-dihydro-2H-benzo[b][1,4]-oxazin-2-yl)propanoic acid] | 
15 | < 0.5 µM | < 0.5 µM | C/C(=C\c1ccc2c(c1)N(S(=O)(=O)c1ccc(C)c(C(F)(F)F)c1)C[C@H](CCC(=O)O)O2)c1c(F)cccc1Cl [Example 86AO, (S,E)-3-(6-(2-(2-chloro-6-fluorophenyl)prop-1-en-1-yl)-4-((4-methyl-3-(trifluoromethyl)-phenyl)sulfonyl)-3,4-dihydro-2H-benzo[b][1,4]oxazin-2-yl)propanoic acid] | 
16 | < 0.5 µM | 0.5 to 5 µM | C[C@@H]1C/C(=C\c2ccc3c(c2)N(S(=O)(=O)c2cccc(C(F)(F)F)c2)C[C@H](CCC(=O)O)O3)C[C@H](C)C1 [Example 95Z, 3-((S)-6-((E)-((3R,5S)-3,5-dimethylcyclohexylidene)-methyl)-4-((3-(trifluoromethyl)-phenyl)sulfonyl)-3,4-dihydro-2H-benzo[b][1,4]oxazin-2-yl)propanoic acid] | 
17 |  |  | C/C(=C\c1ccc2c(c1)N(S(=O)(=O)c1cccc(C(F)(F)F)c1)C[C@H](CCCN1CCCC1)O2)c1c(F)cccc1Cl [Example 117, (S,E)-6-(2-(2-Chloro-6-fluorophenyl)prop-1-en-1-yl)-2-(3-(pyrrolidin-1-yl)propyl)-4-((3-(trifluoromethyl)phenyl)sulfonyl)-3,4-dihydro-2H-benzo[b][1,4]oxazine] | EC50 (RORγ-LBD; RORγ-LBD TR-FRET assay): < 0.5 µM; TR-FRET Assay Max Response (RORγ-LBD; RORγ-LBD TR-FRET assay): *** (a value in the range of greater than 150 to 200); EC50 (Gal4-RORγ-LBD; [2]): 0.5 to 5 µM; Gal4-RORγ Assay Max Response (Gal4-RORγ-LBD; [2]): ** (a value in the range of greater than 90 to 150)
18 |  |  | C/C(=C\c1ccc2c(c1)N(S(=O)(=O)c1cccc(C(F)(F)F)c1)C[C@@H](NS(C)(=O)=O)C2)c1c(F)cccc1Cl [Example 116I, (S,E)-N-(7-(2-(2-chloro-6-fluorophenyl)prop-1-en-1-yl)-1-((3-(trifluoromethyl)phenyl)-sulfonyl)-1,2,3,4-tetrahydroquinolin-3-yl)methanesulfonamide] | EC50 (RORγ-LBD; RORγ-LBD TR-FRET assay): < 0.5 µM; TR-FRET Assay Max Response (RORγ-LBD; RORγ-LBD TR-FRET assay): *** (a value in the range of greater than 150 to 200); EC50 (Gal4-RORγ-LBD; [2]): 0.5 to 5 µM; Gal4-RORγ Assay Max Response (Gal4-RORγ-LBD; [2]): ** (a value in the range of greater than 90 to 150)
19 | < 0.5 µM | > 10 µM | O=C(O)CC[C@H]1CN(S(=O)(=O)c2cccc(C(F)(F)F)c2)c2cc(/C=C/c3ccc(Cl)cc3F)ccc2O1 [Example 89BH, (S,E)-3-(6-(4-chloro-2-fluorostyryl)-4-((3-(trifluoromethyl)phenyl)sulfonyl)-3,4-dihydro-2H-benzo[b][1,4]oxazin-2-yl)propanoic acid] | 
20 |  |  | C/C(=C\c1ccc2c(c1)C(S(=O)(=O)c1cccc(C(F)(F)F)c1)CC(CC(C)(C)C(=O)O)O2)c1c(F)cccc1Cl (centres unmarked) [Example 186N, (E)-3-(6-(2-(2-chloro-6-fluorophenyl)prop-1-en-1-yl)-4-((3-(trifluoromethyl)phenyl)-sulfonyl)chroman-2-yl)-2,2-dimethylpropanoic acid] | EC50 (RORγ-LBD; RORγ-LBD TR-FRET assay): < 0.5 µM; TR-FRET Assay Max Response (RORγ-LBD; RORγ-LBD TR-FRET assay): *** (a value in the range of greater than 150 to 200); EC50 (Gal4-RORγ-LBD; [2]): < 0.5 µM; Gal4-RORγ Assay Max Response (Gal4-RORγ-LBD; [2]): ** (a value in the range of greater than 90 to 150)

Reference: US9896441B2 (Lycera Corporation, priority 2014, dated 2018)
